Experimental data published in ChEMBL document CHEMBL1129775, “Synthesis and evaluation of novel 1,5-Benzodiazepines as potent and selective CCK-B ligands. Effect of the substitution of the N-5 phenyl with alkyl groups” (Bioorg Med Chem Lett, 1996).

Experiments:
[1] = target: T1, Cholecystokinin receptor type A (Rattus norvegicus, UniProt P30551); test: Evaluated in vitro for Cholecystokinin type A receptor affinity by measuring its ability to displace tritiated CCK-8S bound on rat pancreas Cholecystokinin type A receptor
T1 sequence (P30551 whole entry): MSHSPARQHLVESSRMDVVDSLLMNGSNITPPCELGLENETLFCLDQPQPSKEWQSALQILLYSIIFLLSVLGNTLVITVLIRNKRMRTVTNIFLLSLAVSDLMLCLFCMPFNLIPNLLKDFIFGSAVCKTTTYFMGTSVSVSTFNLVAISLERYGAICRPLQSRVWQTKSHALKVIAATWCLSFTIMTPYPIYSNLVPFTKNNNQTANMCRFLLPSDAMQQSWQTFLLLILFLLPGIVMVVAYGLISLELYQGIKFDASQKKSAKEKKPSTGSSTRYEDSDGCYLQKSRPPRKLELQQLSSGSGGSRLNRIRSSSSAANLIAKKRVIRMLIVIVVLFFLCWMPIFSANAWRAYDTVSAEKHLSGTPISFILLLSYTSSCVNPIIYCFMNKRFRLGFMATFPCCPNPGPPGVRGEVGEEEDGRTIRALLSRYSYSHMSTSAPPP

Rattus norvegicus = organism: Rattus norvegicus; test: Ratio of CCK-B receptor affinity and CCK-A receptor affinity

SMILES | Ki [1] [nM] | Ratio (Rattus norvegicus)
CC(C)CCN1C(=O)C(NC(=O)Nc2ccccc2)C(=O)N(CCC(C)C)c2ccccc21 | 61.7 | 26
CC(C)CCN1C(=O)C(NC(=O)Oc2cccc(N(C)C)c2)C(=O)N(CCC(C)C)c2ccccc21 | 794 | 28
CC(CC1CCCC1)N1C(=O)C(NC(=O)Nc2ccccc2)C(=O)N(C(C)CC2CCCC2)c2ccccc21 (stereo unspecified) | 229 | 
O=C(Nc1ccccc1)NC1C(=O)N(CC23CC4CC(CC(C4)C2)C3)c2ccccc2N(CC23CC4CC(CC(C4)C2)C3)C1=O (stereo unspecified) | 2000 | 58
O=C(Nc1ccccc1)NC1C(=O)N(CC23CC4CC(CC(C4)C2)C3)c2ccccc2N(C2CCCCC2)C1=O (stereo unspecified) | 562 | 234
CC(C)CCN1C(=O)C(NC(=O)Oc2cccc(N(C)C)c2)C(=O)N(CC23CC4CC(CC(C4)C2)C3)c2ccccc21 (stereo unspecified) | 1580 | 209
CC(C)CCN1C(=O)C(NC(=O)Nc2ccccc2)C(=O)N(Cc2ccccc2)c2ccccc21 (stereo unspecified) | 66.1 | 17
CC(C)CCN1C(=O)C(NC(=O)Nc2cccc(N(C)C)c2)C(=O)N(CCC(C)C)c2ccccc21 | 83.2 | 32
O=C(Nc1ccccc1)N[C@@H]1C(=O)N(CC23CC4CC(CC(C4)C2)C3)c2ccccc2N(c2ccccc2)C1=O (single isomer, unassigned; (+)) | 1120 | 
CC(C)CCN1C(=O)C(NC(=O)Nc2cccc(N(C)C)c2)C(=O)N(CC23CC4CC(CC(C4)C2)C3)c2ccccc21 (stereo unspecified) | 955 | 170
CC(C)CCN1C(=O)C(NC(=O)Nc2ccccc2)C(=O)N(CC23CC4CC(CC(C4)C2)C3)c2ccccc21 (stereo unspecified) | 288 | 209
O=C(NC1C(=O)N(CC23CC4CC(CC(C4)C2)C3)c2ccccc2N(C2CCCCC2)C1=O)Oc1ccccc1 (stereo unspecified) | 1100 | 26
O=C(Nc1cccc(Cl)c1)NC1C(=O)N(CC23CC4CC(CC(C4)C2)C3)c2ccccc2N(C2CCCCC2)C1=O (stereo unspecified) | 240 | 22
CC(C)CCN1C(=O)C(NC(=O)Oc2ccccc2)C(=O)N(CC23CC4CC(CC(C4)C2)C3)c2ccccc21 (stereo unspecified) | 1410 | 42
